Patent US12421235B2, “Bridged tricyclic carbamoylpyridone compounds and uses thereof” (Gilead Sciences, Inc., priority 2020, dated 2025)

How the values were obtained:
[1] = test system: HIV-1 (IIIB) in MT-4 cells; assay: HIV MT-4 antiviral assay; type: cell-based; details: Human immunodeficiency virus 1, MT4, 120 h, 5 days, Cell Titer Glo
In short: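 MT-4 cells infected with HIV-1 IIIB (1:250 dilution of concentrated stock) were incubated 5 days at 37 °C with compound in 1:3 serial dilutions in RPMI/10% FBS. Viability was read by CellTiter-Glo luminescence. EC50 was the concentration causing a 50% decrease in luminescence signal, from sigmoidal dose-response fits.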

[2] = Cytotoxicity assay in MT-4 cells; type: cell-based; details: human, uninfected MT-4 cells, Cell Titer Glo
In short: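 Uninfected MT-4 cells were incubated with 1:3 serially diluted compound in RPMI/10% FBS for 5 days at 37° C. Viability was read by CellTiter-Glo luminescence, with 10 μM puromycin as the baseline cytotoxicity control. Values are the concentration giving a 50% decrease in luminescence, from sigmoidal dose-response fits.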

[3] = test system: pLai RLuc reporter virus in MT-4 cells; assay: HIV MT-4 serum shift antiviral reporter assay; type: cell-based; details: Human immunodeficiency virus 1, MT4, 72 h, read-out: RLUC CCM
In short: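 MT-4 cells pre-infected 2 h with reporter virus, then dosed (1:3 dilutions) in medium with 10% FBS alone or plus 50% human serum; 72 h at 37 °C. Renilla luminescence read; EC50 = 50% signal decrease by sigmoidal fit, serum shift = EC50(HS)/EC50(no HS).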

[4] = High throughput microsomal stability assay (human liver microsomes); type: in vitro ADME; details: for HLM stability: human liver microsomes, 1 uM compound, NADPH + UDPGA cofactors, 37 C
In short: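 Compounds at 1 uM final, incubated at 37° C. with liver microsomes (2 mg/ml stock, alamethicin-treated) in pH 7.4 phosphate plus NADPH-regenerating/UDPGA cofactors; samples taken 0–70 min. Parent/IS peak-area ratios read by RapidFire QToF MS; half-life from linear fit of initial log decay, scaled to intrinsic clearance.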

| SMILES | EC50 [1] [nM] | CC50 at 5 days [2] [nM] | EC50 [3] [nM] | HLM stability [4] [mL/min/kg] | MS Cl improvement ([4]; relative to compound B) | MS Cl improvement ([4]; relative to compound A) | MS Cl improvement ([4]; relative to compound D) | MS Cl improvement ([4]; relative to compound C) |
| --- | --- | --- | --- | --- | --- | --- | --- | --- |
| CO[C@H]1CC[C@H](C)N2C[C@H]1n1cc(C(=O)NCc3ccc(F)cc3F)c(=O)c(O)c1C2=O [Example 3, (3S,6S,7R)—N-(2,4-difluorobenzyl)-12-hydroxy-6-methoxy-3-methyl-1,11-dioxo-1,4,5,6,7,11-hexahydro-3H-2,7-methanopyrido[1,2-a][1,4]diazonine-10-carboxamide] | 1.5 | 16500 | 0.42 | 2.5 | 3.2 times relative to compound B |  |  |  |
| CO[C@H]1CC[C@H](C)N2C[C@H]1n1cc(C(=O)NCc3c(F)cc(F)cc3F)c(=O)c(O)c1C2=O [Example 1, (3S,6S,7R)-12-hydroxy-6-methoxy-3-methyl-1,11-dioxo-N-(2,4,6-trifluorobenzyl)-1,4,5,6,7,11-hexahydro-3H-2,7-methanopyrido[1,2-a][1,4]diazonine-10-carboxamide] | 1.5 | 34800 | 0.55 | 3.5 |  | 3.2 times relative to compound A |  |  |
| CCO[C@H]1CC[C@H](C)N2C[C@H]1n1cc(C(=O)NCc3c(F)cc(F)cc3F)c(=O)c(O)c1C2=O [Example 26, (3S,6S,7R)-6-ethoxy-12-hydroxy-3-methyl-1,11-dioxo-N-(2,4,6-trifluorobenzyl)-1,4,5,6,7,11-hexahydro-3H-2,7-methanopyrido[1,2-a][1,4]diazonine-10-carboxamide] | 4.4 | 44300 | 0.92 | 3.67 |  |  |  |  |
| [2H][C@]1(OC)C=C[C@H](C)N2C[C@H]1n1cc(C(=O)NCc3ccc(F)cc3F)c(=O)c(O)c1C2=O [Example 21, (3S,6S,7R)—N-(2,4-difluorobenzyl)-12-hydroxy-6-methoxy-3-methyl-1,11-dioxo-1,6,7,11-tetrahydro-3H-2,7-methanopyrido[1,2-a][1,4]diazonine-6-d-10-carboxamide] | 1.8 | 19300 | 0.52 | 6.17 |  |  |  |  |
| CO[C@H]1CC[C@H](CF)N2C[C@H]1n1cc(C(=O)NCc3ccc(F)cc3F)c(=O)c(O)c1C2=O [Example 41, (3R,6S,7R)—N-(2,4-difluorobenzyl)-3-(fluoromethyl)-12-hydroxy-6-methoxy-1,11-dioxo-1,4,5,6,7,11-hexahydro-3H-2,7-methanopyrido[1,2-a][1,4]diazonine-10-carboxamide] | 1.7 | 19400 | 0.56 | 1.83 |  |  |  |  |
| CO[C@H]1C=C[C@H](C)N2C[C@H]1n1cc(C(=O)NCc3c(F)cc(F)cc3F)c(=O)c(O)c1C2=O [Example 18, (3S,6S,7R)-12-hydroxy-6-methoxy-3-methyl-1,11-dioxo-N-(2,4,6-trifluorobenzyl)-1,6,7,11-tetrahydro-3H-2,7-methanopyrido[1,2-a][1,4]diazonine-10-carboxamide] | 1.4 | 13400 | 0.55 | 12.2 |  |  |  |  |
| C[C@H]1CC[C@@](C)(O)[C@H]2CN1C(=O)c1c(O)c(=O)c(C(=O)NCc3ccc(F)cc3F)cn12 [Example 33, (1R,10S,13R)—N-[(2,4-difluorophenyl)methyl]-6,13-dihydroxy-10,13-dimethyl-5,8-dioxo-2,9-diazatricyclo[7.4.1.02,7]tetradeca-3,6-diene-4-carboxamide] | 2.1 | 22800 | 0.36 | 5.83 |  |  |  |  |
| CO[C@@H]1C[C@H](F)[C@H](C)N2C[C@H]1n1cc(C(=O)NCc3c(F)cc(F)cc3F)c(=O)c(O)c1C2=O [Example 37, (3S,4S,6R,7R)-4-fluoro-12-hydroxy-6-methoxy-3-methyl-1,11-dioxo-N-(2,4,6-trifluorobenzyl)-1,4,5,6,7,11-hexahydro-3H-2,7-methanopyrido[1,2-a][1,4]diazonine-10-carboxamide] | 1.4 | 14800 | 0.65 | 2.83 |  |  |  |  |
| CO[C@H]1C[C@@H](F)[C@H](C)N2C[C@H]1n1cc(C(=O)NCc3c(F)cc(F)cc3F)c(=O)c(O)c1C2=O [Example 39, (3S,4R,6S,7R)-4-fluoro-12-hydroxy-6-methoxy-3-methyl-1,11-dioxo-N-(2,4,6-trifluorobenzyl)-1,4,5,6,7,11-hexahydro-3H-2,7-methanopyrido[1,2-a][1,4]diazonine-10-carboxamide] | 1.5 | 11700 | 1.5 | 4.67 |  |  |  |  |
| CO[C@@H]1C[C@@H](F)[C@H](C)N2C[C@H]1n1cc(C(=O)NCc3c(F)cc(F)cc3F)c(=O)c(O)c1C2=O (single isomer, unassigned) [Example 38] | 1.8 | 25500 | 0.34 | 3.17 |  |  |  |  |
| C[C@H]1CC[C@](C)(O)[C@H]2CN1C(=O)c1c(O)c(=O)c(C(=O)NCc3c(F)cc(F)cc3F)cn12 [Example 11, (1R,10S,13S)-6,13-dihydroxy-10,13-dimethyl-5,8-dioxo-N-[(2,4,6-trifluorophenyl)methyl]-2,9-diazatricyclo[7.4.1.02,7]tetradeca-3,6-diene-4-carboxamide] | 1.5 | 38700 | 0.84 | 4.17 |  |  | 2.7 times relative to compound D |  |
| C[C@@H]1CC[C@](C)(O)[C@H]2CN1C(=O)c1c(O)c(=O)c(C(=O)NCc3ccc(F)cc3F)cn12 (single isomer, unassigned) [Example 35] | 3.2 | 11700 | 1.45 | 10.3 |  |  |  |  |
| CO[C@@H]1C=C[C@H](C)N2C[C@H]1n1cc(C(=O)NCc3ccc(F)c(Cl)c3F)c(=O)c(O)c1C2=O [Example 10, (3S,6R,7R)—N-(3-chloro-2,4-difluorobenzyl)-12-hydroxy-6-methoxy-3-methyl-1,11-dioxo-1,6,7,11-tetrahydro-3H-2,7-methanopyrido[1,2-a][1,4]diazonine-10-carboxamide] | 1.2 | 4020 | 0.28 | 6.67 |  |  |  |  |
| CO[C@@H]1C=C[C@H](C)N2C[C@H]1n1cc(C(=O)NCc3c(F)cc(F)cc3F)c(=O)c(O)c1C2=O [Example 4, (3S,6R,7R)-12-hydroxy-6-methoxy-3-methyl-1,11-dioxo-N-(2,4,6-trifluorobenzyl)-1,6,7,11-tetrahydro-3H-2,7-methanopyrido[1,2-a][1,4]diazonine-10-carboxamide] | 1.1 | 11200 | 0.34 | 2.33 |  |  |  | 3.6 times relative to compound C |
